{"source": "patent US7544694B2", "about": "“Substituted diaza-spiro-[5.5]-undecane derivatives and their use as neurokinin antagonists” (Janssen Pharmaceutica N.V., priority 2004, dated 2009)", "assay_type_in_all_cases": "cell-based", "key": {"NK1": {"target": "NK1 (Homo sapiens, UniProt P25103)", "sequence (P25103 whole entry)": "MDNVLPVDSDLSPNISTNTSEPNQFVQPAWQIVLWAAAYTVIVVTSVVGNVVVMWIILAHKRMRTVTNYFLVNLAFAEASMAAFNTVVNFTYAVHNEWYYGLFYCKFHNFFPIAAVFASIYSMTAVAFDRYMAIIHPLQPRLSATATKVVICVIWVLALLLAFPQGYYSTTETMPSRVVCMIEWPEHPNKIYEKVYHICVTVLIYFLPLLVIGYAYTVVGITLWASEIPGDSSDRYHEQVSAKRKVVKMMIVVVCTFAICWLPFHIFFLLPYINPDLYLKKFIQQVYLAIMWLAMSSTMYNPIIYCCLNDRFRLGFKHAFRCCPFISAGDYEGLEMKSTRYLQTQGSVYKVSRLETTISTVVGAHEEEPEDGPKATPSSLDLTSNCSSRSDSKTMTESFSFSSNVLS", "assay": "Signal transduction (ST), intracellular Ca++ (FLIPR), functional NK1 antagonistic activity", "settings": "antagonist, read-out: NK1 pIC50 (converted)", "protocol": "(§1) This test evaluates in vitro functional NK1 antagonistic activity. For the measurements of intracellular Ca^++ concentrations the cells were grown on 96-well (black wall/transparent bottom) plates from Costar for 2 days until they reached confluence. The cells were loaded with 2 μM Fluo3 in DMEM containing 0.1% BSA and 2.5 mM probenecid for 1 h at 37° C. They were washed 3× with a Krebs buffer (140 mM NaCl, 1 mM MgCl2×6H2O, 5 mM KCl, 10 mM glucose, 5 mM HEPES; 1.25 mM CaCl2; pH 7.4) containing 2.5 mM probenecid and 0.1% BSA (Ca^++-buffer). The cells were preincubated with a concentration range of antagonists for 20 min at RT and Ca^++-signals after addition of the agonists were measured in a Fluorescence Image Plate Reader (FLIPR from Molecular Devices, Crawley, England). The peak of the Ca^++-transient was considered as the relevant signal and the mean values of corresponding wells were analysed as described below.\n(§2) The sigmoidal dose response curves were analysed by computerised curve-fitting, using the GraphPad Program. The EC50-value of a compound is the effective dose showing 50% of maximal effect. For mean curves the response to the agonist with the highest potency was normalised to 100%. For antagonist responses the IC50-value was calculated using non-linear regression.\n(§3) The last columns indicate—without being limited thereto—for which action the compounds might be most suitable. Of course, since for some neurokinin receptors no data was determined, it is obvious that these compounds might be attributed to another suitable use."}, "NK2": {"target": "T1, NK2 (Homo sapiens, UniProt P21452)", "T1 sequence (P21452 1-398)": "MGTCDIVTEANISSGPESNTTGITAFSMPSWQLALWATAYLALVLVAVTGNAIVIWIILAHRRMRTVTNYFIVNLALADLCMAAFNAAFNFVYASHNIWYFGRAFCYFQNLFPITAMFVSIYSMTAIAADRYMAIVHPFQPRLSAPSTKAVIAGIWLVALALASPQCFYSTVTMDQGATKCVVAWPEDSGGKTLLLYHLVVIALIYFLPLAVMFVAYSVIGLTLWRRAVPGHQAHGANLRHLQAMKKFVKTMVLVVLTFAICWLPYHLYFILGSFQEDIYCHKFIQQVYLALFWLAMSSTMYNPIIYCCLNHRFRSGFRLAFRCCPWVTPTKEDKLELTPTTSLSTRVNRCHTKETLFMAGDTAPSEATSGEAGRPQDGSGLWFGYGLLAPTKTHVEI", "assay": "Signal transduction (ST), intracellular Ca++ (FLIPR), NK2", "settings": "antagonist, read-out: NK2 pIC50 (converted)", "protocol": "[The source words this procedure for another target and reports this target under the same test.] as §1, §2, §3"}, "NK3": {"target": "T2, NK3 (Homo sapiens, UniProt P29371)", "T2 sequence (P29371 1-465)": "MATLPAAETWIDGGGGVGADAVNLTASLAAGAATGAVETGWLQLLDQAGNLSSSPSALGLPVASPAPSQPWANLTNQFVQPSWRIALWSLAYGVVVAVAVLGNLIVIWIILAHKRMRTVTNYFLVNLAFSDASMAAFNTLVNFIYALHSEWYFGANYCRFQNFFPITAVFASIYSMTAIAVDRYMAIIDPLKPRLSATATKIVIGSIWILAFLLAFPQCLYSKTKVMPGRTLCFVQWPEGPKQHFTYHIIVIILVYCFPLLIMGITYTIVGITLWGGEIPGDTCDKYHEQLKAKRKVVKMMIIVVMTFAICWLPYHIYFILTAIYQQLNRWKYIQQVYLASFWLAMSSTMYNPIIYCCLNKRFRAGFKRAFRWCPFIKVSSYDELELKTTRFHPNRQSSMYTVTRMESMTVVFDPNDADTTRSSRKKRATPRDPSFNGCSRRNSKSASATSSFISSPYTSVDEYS", "assay": "Signal transduction (ST), intracellular Ca++ (FLIPR), NK3", "settings": "antagonist, read-out: NK3 pIC50 (converted)", "protocol": "[The source words this procedure for another target and reports this target under the same test.] as §1, §2, §3"}}}
{"smiles": "O=C(C1CCOC1)N1CCC2(CC1)CCN(C(=O)[C@H]1CCN(C(=O)c3cc(C(F)(F)F)cc(C(F)(F)F)c3)[C@H](Cc3ccccc3)C1)CC2", "note": "(stereo partly drawn) [Compound 187]", "values": [{"measurement": "IC50", "setting": "NK1", "result": 20, "unit": "nM"}, {"measurement": "IC50", "setting": "NK2", "result": 7080, "unit": "nM"}, {"measurement": "IC50", "setting": "NK3", "result": "> 10000", "unit": "nM"}]}
{"smiles": "O=C1CCC(C(=O)N2CCC3(CC2)CCN(C2CCN(C(=O)c4cc(C(F)(F)F)cc(C(F)(F)F)c4)C(Cc4ccccc4)C2)CC3)N1", "note": "(stereo not drawn) [Compound 4]", "values": [{"measurement": "IC50", "setting": "NK1", "result": 38.9, "unit": "nM"}, {"measurement": "IC50", "setting": "NK2", "result": 1550, "unit": "nM"}, {"measurement": "IC50", "setting": "NK3", "result": 1290, "unit": "nM"}]}
{"smiles": "O=C1CC2(CCN1Cc1ccccc1F)CCN([C@H]1CCN(C(=O)c3cc(C(F)(F)F)cc(C(F)(F)F)c3)[C@H](Cc3ccccc3)C1)CC2", "note": "[Compound 202]", "values": [{"measurement": "IC50", "setting": "NK1", "result": 245, "unit": "nM"}, {"measurement": "IC50", "setting": "NK2", "result": 4570, "unit": "nM"}, {"measurement": "IC50", "setting": "NK3", "result": 7240, "unit": "nM"}]}
{"smiles": "O=C(c1cc(C(F)(F)F)cc(C(F)(F)F)c1)N1CC[C@H](N2CCC3(CC2)CCN(S(=O)(=O)c2ccccc2)CC3)C[C@H]1Cc1ccccc1", "note": "[Compound 102]", "values": [{"measurement": "IC50", "setting": "NK1", "result": 61.7, "unit": "nM"}, {"measurement": "IC50", "setting": "NK2", "result": "> 10000", "unit": "nM"}, {"measurement": "IC50", "setting": "NK3", "result": 708, "unit": "nM"}]}
{"smiles": "O=C(C1CC1)N1CCC2(CCN(C[C@H]3CCN(C(=O)c4cc(C(F)(F)F)cc(C(F)(F)F)c4)[C@H](Cc4ccccc4)C3)CC2)CC1", "note": "[Compound 179]", "values": [{"measurement": "IC50", "setting": "NK1", "result": 58.9, "unit": "nM"}, {"measurement": "IC50", "setting": "NK2", "result": "> 10000", "unit": "nM"}, {"measurement": "IC50", "setting": "NK3", "result": "> 10000", "unit": "nM"}]}
{"smiles": "O=C(c1cc(C(F)(F)F)cc(C(F)(F)F)c1)N1CC[C@H](N2CCC3(CC2)CCN(S(=O)(=O)c2ccc(C(F)(F)F)cc2)CC3)C[C@H]1Cc1ccccc1", "note": "[Compound 117]", "values": [{"measurement": "IC50", "setting": "NK1", "result": 447, "unit": "nM"}, {"measurement": "IC50", "setting": "NK2", "result": "> 10000", "unit": "nM"}, {"measurement": "IC50", "setting": "NK3", "result": "> 10000", "unit": "nM"}]}
{"smiles": "O=C(c1cccnc1)N1CCC2(CC1)CCN([C@H]1CCN(C(=O)c3cc(C(F)(F)F)cc(C(F)(F)F)c3)[C@H](Cc3ccccc3)C1)CC2", "note": "[Compound 50]", "values": [{"measurement": "IC50", "setting": "NK1", "result": 77.6, "unit": "nM"}, {"measurement": "IC50", "setting": "NK2", "result": 2630, "unit": "nM"}, {"measurement": "IC50", "setting": "NK3", "result": "> 10000", "unit": "nM"}]}
{"smiles": "O=C(C1CC1)N1CCCC2(CCCN([C@H]3CCN(C(=O)c4cc(C(F)(F)F)cc(C(F)(F)F)c4)[C@H](Cc4ccccc4)C3)C2)C1", "note": "(stereo partly drawn) [Compound 208]", "values": [{"measurement": "IC50", "setting": "NK1", "result": 347, "unit": "nM"}, {"measurement": "IC50", "setting": "NK2", "result": 2630, "unit": "nM"}, {"measurement": "IC50", "setting": "NK3", "result": 4270, "unit": "nM"}]}
{"smiles": "O=C(C1=COCCC1)N1CCC2(CC1)CCN([C@H]1CCN(C(=O)c3cc(C(F)(F)F)cc(C(F)(F)F)c3)[C@H](Cc3ccccc3)C1)CC2", "note": "[Compound 45]", "values": [{"measurement": "IC50", "setting": "NK1", "result": 79.4, "unit": "nM"}, {"measurement": "IC50", "setting": "NK2", "result": 5370, "unit": "nM"}, {"measurement": "IC50", "setting": "NK3", "result": "> 10000", "unit": "nM"}]}
{"smiles": "O=C(c1ccco1)N1CCCC2(CCN([C@H]3CCN(C(=O)c4cc(C(F)(F)F)cc(C(F)(F)F)c4)[C@H](Cc4ccccc4)C3)CC2)C1", "note": "[Compound 176]", "values": [{"measurement": "IC50", "setting": "NK1", "result": 72.4, "unit": "nM"}, {"measurement": "IC50", "setting": "NK2", "result": "~6460", "unit": "nM"}, {"measurement": "IC50", "setting": "NK3", "result": "> 10000", "unit": "nM"}]}
{"smiles": "O=C(c1ncccc1O)N1CCC2(CC1)CCN([C@H]1CCN(C(=O)c3cc(C(F)(F)F)cc(C(F)(F)F)c3)[C@H](Cc3ccccc3)C1)CC2", "note": "[Compound 53]", "values": [{"measurement": "IC50", "setting": "NK1", "result": 138, "unit": "nM"}, {"measurement": "IC50", "setting": "NK2", "result": "> 10000", "unit": "nM"}, {"measurement": "IC50", "setting": "NK3", "result": "> 10000", "unit": "nM"}]}
{"smiles": "CN1CCC=C(C(=O)N2CCC3(CC2)CCN([C@H]2CCN(C(=O)c4cc(C(F)(F)F)cc(C(F)(F)F)c4)[C@H](Cc4ccccc4)C2)CC3)C1", "note": "[Compound 48]", "values": [{"measurement": "IC50", "setting": "NK1", "result": 219, "unit": "nM"}, {"measurement": "IC50", "setting": "NK2", "result": "> 10000", "unit": "nM"}, {"measurement": "IC50", "setting": "NK3", "result": "> 10000", "unit": "nM"}]}
{"smiles": "O=C(CC12CC3CC(CC(C3)C1)C2)N1CCC2(CC1)CCN([C@H]1CCN(C(=O)c3cc(C(F)(F)F)cc(C(F)(F)F)c3)[C@H](Cc3ccccc3)C1)CC2", "note": "[Compound 72]", "values": [{"measurement": "IC50", "setting": "NK1", "result": 324, "unit": "nM"}, {"measurement": "IC50", "setting": "NK2", "result": "> 10000", "unit": "nM"}, {"measurement": "IC50", "setting": "NK3", "result": "> 10000", "unit": "nM"}]}
{"smiles": "Cc1occc1C(=O)N1CCC2(CC1)CCN([C@H]1CCN(C(=O)c3cc(C(F)(F)F)cc(C(F)(F)F)c3)[C@H](Cc3ccccc3)C1)CC2", "note": "[Compound 27]", "values": [{"measurement": "IC50", "setting": "NK1", "result": 20.4, "unit": "nM"}, {"measurement": "IC50", "setting": "NK2", "result": 4470, "unit": "nM"}, {"measurement": "IC50", "setting": "NK3", "result": 3310, "unit": "nM"}]}
{"smiles": "O=C(c1cc(C(F)(F)F)cc(C(F)(F)F)c1)N1CCC(N2CCC3(CC2)CCN(C(CO)c2cccs2)CC3)CC1Cc1ccccc1", "note": "(stereo not drawn) [Compound 6]", "values": [{"measurement": "IC50", "setting": "NK1", "result": 129, "unit": "nM"}, {"measurement": "IC50", "setting": "NK2", "result": 7760, "unit": "nM"}, {"measurement": "IC50", "setting": "NK3", "result": "> 10000", "unit": "nM"}]}
{"smiles": "O=C(c1cc(C(F)(F)F)cc(C(F)(F)F)c1)N1CC[C@H](N2CCC3(CC2)CCN(S(=O)(=O)C(F)(F)F)CC3)C[C@H]1Cc1ccccc1", "note": "[Compound 91]", "values": [{"measurement": "IC50", "setting": "NK1", "result": 87.1, "unit": "nM"}, {"measurement": "IC50", "setting": "NK2", "result": 1380, "unit": "nM"}, {"measurement": "IC50", "setting": "NK3", "result": 4370, "unit": "nM"}]}
